Data as given in patent US20250228239A1, “MOLECULES HAVING PESTICIDAL UTILITY, AND INTERMEDIATES, COMPOSITIONS, AND PROCESSES, RELATED THERETO” (priority 2024, published 2025).
Read-outs that look alike come from different tables or passages of the source.

How the values were obtained:
Type in all cases: in vivo
[1] = test system: Yellow Fever Mosquito (Aedes aegypti, AEDSAE); settings: for YFM rating: Table ABC / ABC-DP rating; for YFM % Control (or Mortality) rating: about 1 day-old larvae, 4000 ppm master solution diluted with 90:10 water/acetone, 15 μL per well plus 220 μL larval mixture, 3 days
Outline: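 Mortality after 3 days at room temperature is the read-out, scored well by well and converted to a rating. Test molecules came from 4000 ppm stocks in DMSO, further diluted in 90:10 water/acetone, and were exposed to roughly 1-day-old larvae suspended in liver-powder water.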

[2] = test system: Cabbage Looper (Trichoplusia ni, TRIPNI); experiment: Bioassays on Cabbage Looper (CL), 128-well diet tray assay; settings: Trichoplusia ni; for mortality at 50 µg/cm2: 168 h, second instar larvae, 50 μg/cm^2 of test molecule on artificial diet, 25° C., five to seven days, average of eight wells, read-out: CL % Control (or Mortality) rating
Outline: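 Diet tray, 2nd instar, 1–5 larvae/well; 50 μg/cm^2 compound surface-applied (acetone:water 90:10), dried; 8 wells/treatment; 25° C, 14:10 L:D, 5–7 d; % mortality, mean of 8 wells.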

[3] = test system: Beet Armyworm (Spodoptera exigua, LAPHEG); experiment: Bioassays on Beet Armyworm (BAW), 128-well diet tray assay; settings: Spodoptera exigua; for mortality at 50 µg/cm2: 168 h, second instar larvae, 50 μg/cm^2 of test molecule on artificial diet, 25° C., five to seven days, average of eight wells, read-out: BAW % Control (or Mortality) rating
Outline: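 One to five second-instar larvae per well on artificial diet surface-treated with 50 μg/cm^2 test molecule (applied in 90:10 acetone-water, dried), eight wells per compound. Trays held vented at 25° C., 14:10 light-dark for five to seven days; percent mortality averaged over the eight wells.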

[4] = Cabbage Looper, Table ABC / ABC-DP rating, read-out: CL rating
[5] = Beet Armyworm, Table ABC / ABC-DP rating, read-out: BAW rating
[6] = Yellow Fever Mosquito, rating class
[7] = Cabbage Looper, rating class, read-out: CL
[8] = Beet Armyworm, rating class, read-out: BAW
[9] = Table ABC: Biological Results, species YFM
[10] = Table ABC: Biological Results, species CL, read-out: CL
[11] = Table ABC: Biological Results, species BAW, read-out: BAW

Compound: O=C(Nc1ccc(F)c(NC(=O)C(Br)CC(F)(F)F)c1F)c1cc(NC(=O)[C@H]2[C@H](c3ccc(F)c(C(F)(F)F)c3)C2(Cl)Cl)ccc1Cl (stereo partly drawn) [F1831, N-(3-(2-Bromo-4,4,4-trifluorobutanamido)-2,4-difluorophenyl)-2-chloro-5-((1R,3R)-2,2-dichloro-3-(4-fluoro-3-(trifluoromethyl)phenyl)cyclopropane-1-carboxamido)benzamide]
- YFM rating ([1]; Yellow Fever Mosquito): A (80–100)
- pest or weed control at 50 µg/cm2 [2, 4]: 50 to 100%
- pest or weed control at 50 µg/cm2 [3, 5]: 50 to 100%

Compound: O=C(COC(F)(F)F)Nc1c(F)ccc(NC(=O)c2cc(NC(=O)[C@H]3[C@H](c4cccc(C(F)(F)F)c4)C3(Cl)Cl)ccc2Cl)c1F [F1774, 2-Chloro-5-((1R,3R)-2,2-dichloro-3-(3-(trifluoromethyl)phenyl)cyclopropane-1-carboxamido)-N-(2,4-difluoro-3-(2-(trifluoromethoxy)acetamido)phenyl)benzamide]
- YFM rating ([1]; Yellow Fever Mosquito): A (80–100)
- pest or weed control at 50 µg/cm2 [2, 4]: 50 to 100%
- pest or weed control at 50 µg/cm2 [3, 5]: 50 to 100%

Compound: C#CC(C)C(=O)N(CC)c1c(F)ccc(NC(=O)c2cc(NC(=O)[C@H]3[C@H](c4ccc(F)c(C(F)(F)F)c4)C3(Cl)Cl)ccc2Cl)c1F (some centres unmarked) [F1764]
- YFM [1, 6]: A (80–100)
- pest or weed control at 50 µg/cm2 [2, 7]: 50 to 100%
- pest or weed control at 50 µg/cm2 [3, 8]: 50 to 100%

Compound: O=C(Nc1cc(NC(=O)C(F)(F)F)c(F)cc1F)c1cc(NC(=O)[C@H]2[C@H](c3ccc(Cl)c(Cl)c3)C2(Cl)Cl)ccc1F [F1510, 5-((1R,3R)-2,2-Dichloro-3-(3,4-dichlorophenyl)cyclopropane-1-carboxamido)-N-(2,4-difluoro-5-(2,2,2-trifluoroacetamido)phenyl)-2-fluorobenzamide]
- YFM [1, 6]: A (80–100)
- pest or weed control at 50 µg/cm2 [2, 7]: 50 to 100%
- pest or weed control at 50 µg/cm2 [3, 8]: 50 to 100%

Compound: CC(=O)Nc1c(F)ccc(NC(=O)c2cc(NC(=O)[C@H]3[C@H](c4cc(C(F)(F)F)cc(C(F)(F)F)c4)C3(Cl)Cl)ccc2Cl)c1F (relative stereo) [F1803, trans-N-(3-Acetamido-2,4-difluorophenyl)-5-(3-(3,5-bis(trifluoromethyl)phenyl)-2,2-dichlorocyclopropane-1-carboxamido)-2-chlorobenzamide]
- YFM rating ([1]; Yellow Fever Mosquito): A (80–100)
- pest or weed control at 50 µg/cm2 [2, 4]: 50 to 100%
- pest or weed control at 50 µg/cm2 [3, 5]: 50 to 100%

Compound: CS(=O)(=O)CC(=O)Nc1c(F)ccc(NC(=O)c2cc(NC(=O)[C@H]3[C@H](c4ccc(F)c(C(F)(F)F)c4)C3(Cl)Cl)ccc2Cl)c1F [F1299, 2-Chloro-5-((1R,3R)-2,2-dichloro-3-(4-fluoro-3-(trifluoromethyl)phenyl)cyclopropane-1-carboxamido)-N-(2,4-difluoro-3-(2-(methylsulfonyl)acetamido)phenyl)benzamide]
- YFM [1, 9]: A (80–100)
- pest or weed control at 50 µg/cm2 [2, 10]: 50 to 100%
- pest or weed control at 50 µg/cm2 [3, 11]: 50 to 100%

Compound: O=C(Nc1ccc(F)c(NC(=O)C2CC=CCC2)c1F)c1cc(NC(=O)[C@H]2[C@H](c3ccc(F)c(C(F)(F)F)c3)C2(Cl)Cl)ccc1Cl (stereo partly drawn) [F1297, 2-Chloro-N-(3-(cyclohex-3-ene-1-carboxamido)-2,4-difluorophenyl)-5-((1R,3R)-2,2-dichloro-3-(4-fluoro-3-(trifluoromethyl)phenyl)cyclopropane-1-carboxamido)benzamide]
- YFM [1, 9]: A (80–100)
- pest or weed control at 50 µg/cm2 [2, 10]: 50 to 100%
- pest or weed control at 50 µg/cm2 [3, 11]: 50 to 100%

Compound: Nc1cc(NC(=O)c2cc(NC(=O)[C@H]3[C@H](c4ccc(Cl)c(Cl)c4)C3(Cl)Cl)ccc2Cl)c(F)cc1F [DP5, N-(5-Amino-2,4-difluorophenyl)-2-chloro-5-((1R,3R)-2,2-dichloro-3-(3,4-dichlorophenyl)cyclopropane-1-carboxamido)benzamide]
- YFM rating ([1]; Yellow Fever Mosquito): A (80–100)
- YFM % Control (or Mortality) rating [1]: A (80–100)
- mortality at 50 µg/cm2 [2]: 50 to 100%
- pest or weed control at 50 µg/cm2 [2, 4]: 50 to 100%
- mortality at 50 µg/cm2 [3]: 50 to 100%
- pest or weed control at 50 µg/cm2 [3, 5]: 50 to 100%

Compound: Nc1c(F)ccc(NC(=O)c2cc(NC(=O)[C@H]3[C@H](c4cc(F)c(Cl)c(C(F)(F)F)c4)C3(Cl)Cl)ccc2Cl)c1F (relative stereo) [F1167, trans-N-(3-Amino-2,4-difluorophenyl)-2-chloro-5-(2,2-dichloro-3-(4-chloro-3-fluoro-5-(trifluoromethyl)phenyl)cyclopropane-1-carboxamido)benzamide]
- YFM [1, 9]: A (80–100)
- pest or weed control at 50 µg/cm2 [2, 10]: 50 to 100%
- pest or weed control at 50 µg/cm2 [3, 11]: 50 to 100%

Compound: CC(=O)Nc1cc(NC(=O)c2cc(NC(=O)[C@H]3[C@H](c4ccc(F)c(C(F)(F)F)c4)C3(Cl)Cl)ccc2Cl)c(F)c(F)c1F [F1743, N-(5-Acetamido-2,3,4-trifluorophenyl)-2-chloro-5-((1R,3R)-2,2-dichloro-3-(4-fluoro-3-(trifluoromethyl)phenyl)cyclopropane-1-carboxamido)benzamide]
- YFM [1, 6]: A (80–100)
- pest or weed control at 50 µg/cm2 [2, 7]: 50 to 100%
- pest or weed control at 50 µg/cm2 [3, 8]: 50 to 100%

Compound: CC(C)(C)OC(=O)Nc1c(F)ccc(NC(=O)c2cc(NC(=O)[C@H]3[C@H](c4ccc(Cl)c(C(F)(F)F)c4)C3(Cl)Cl)ccc2Cl)c1F (relative stereo) [F1077, trans-tert-Butyl-(3-(2-chloro-5-(2,2-dichloro-3-(4-chloro-3-(trifluoromethyl)phenyl)cyclopropane-1-carboxamido)benzamido)-2,6-difluorophenyl)carbamate]
- YFM [1, 9]: A (80–100)
- pest or weed control at 50 µg/cm2 [2, 10]: 50 to 100%
- pest or weed control at 50 µg/cm2 [3, 11]: 50 to 100%

Compound: CC(C)(C)OC(=O)Nc1c(F)ccc(NC(=O)c2cc(NC(=O)[C@H]3[C@H](c4ccc(F)c(C(F)(F)F)c4)C3(Cl)Cl)ccc2Cl)c1F [F1053, tert-Butyl-(3-(2-chloro-5-((1R,3R)-2,2-dichloro-3-(4-fluoro-3-(trifluoromethyl)phenyl)cyclopropane-1-carboxamido)benzamido)-2,6-difluorophenyl)carbamate]
- YFM [1, 9]: A (80–100)
- pest or weed control at 50 µg/cm2 [2, 10]: 50 to 100%
- pest or weed control at 50 µg/cm2 [3, 11]: 50 to 100%

Compound: O=C(NNc1ccc(OC(F)(F)C(F)(F)F)cc1)c1cc(NC(=O)[C@H]2[C@H](c3cc(Cl)cc(Cl)c3)C2(Cl)Cl)ccc1Cl (relative stereo) [F2565, trans-2,2-Dichloro-N-(4-chloro-3-(2-(4-(perfluoroethoxy)phenyl)hydrazine-1-carbonyl)phenyl)-3-(3,5-dichlorophenyl)cyclopropane-1-carboxamide]
- YFM % Control (or Mortality) rating [1]: D (No activity noticed in this bioassay)
- mortality at 50 µg/cm2 [2]: 50 to 100%
- pest or weed control at 50 µg/cm2 [2, 4]: 50 to 100%
- mortality at 50 µg/cm2 [3]: 50 to 100%
- pest or weed control at 50 µg/cm2 [3, 5]: 50 to 100%

Compound: O=C(Nc1ccc(F)cc1F)c1cc(NC(=O)[C@H]2[C@H](c3cc(F)c(Cl)c(Cl)c3)C2(Cl)Cl)ccc1Cl (relative stereo) [F1024, trans-2-Chloro-5-(2,2-dichloro-3-(3,4-dichloro-5-fluorophenyl)cyclopropane-1-carboxamido)-N-(2,4-difluorophenyl)benzamide]
- YFM [1, 9]: A (80–100)
- pest or weed control at 50 µg/cm2 [2, 10]: 50 to 100%
- pest or weed control at 50 µg/cm2 [3, 11]: 50 to 100%

Compound: Cc1cc([C@H]2[C@H](C(=O)Nc3ccc(Cl)c(C(=O)Nc4ccc(F)cc4F)c3)C2(Cl)Cl)cc(C(F)(F)F)c1F (relative stereo) [F1066, trans-2-Chloro-5-(2,2-dichloro-3-(4-fluoro-3-methyl-5-(trifluoromethyl)phenyl)cyclopropane-1-carboxamido)-N-(2,4-difluorophenyl)benzamide]
- YFM [1, 9]: A (80–100)
- pest or weed control at 50 µg/cm2 [2, 10]: 50 to 100%
- pest or weed control at 50 µg/cm2 [3, 11]: 50 to 100%
